Literature values as cited in patent publication US20250353815A1, “AMINO ACID HAVING FLUORINE AT a-POSITION, AND DERIVATIVE OF SAME” (SynCrest Inc., priority 2022, published 2025).

Key:
DNA methyltransferase [1] = settings: inhibition of DNA methyltransferase
DNA methyltransferase [2] = tested on: DNA methyltransferase

- IC50 (DNA methyltransferase [1]): 115 nM
Structure (SMILES): O=C(O)[C@H](Cc1c[nH]c2ccccc12)N1C(=O)c2ccccc2C1=O [RG-108, N-phthalyl-L-tryptophan]
- reprogramming of somatic cells into iPS cells (mouse somatic cells): promotes the reprogramming
- reprogramming of somatic cells into iPS cells (human somatic cells): promotes the reprogramming
- binding to the active site of the enzyme in molecular modeling (DNA methyltransferase [2]): bind directly to the active site of the enzyme
